# ± gives the expanded uncertainty stated by the source.
# What was measured:
# [1] = Liquid; for mass density: 298.15 K, 101.33 kPa, Vibrating tube method; for vapor or sublimation pressure: Ebulliometric method (Recirculating still)
# [2] = refractive index (Na D-line) (dimensionless); settings: 298.15 K; 101.33 kPa; Liquid; Standard Abbe refractometry
vapor or sublimation pressure ([1]; 393.4 K),SMILES,mass density [1],vapor or sublimation pressure ([1]; 347.2 K),refractive index [2],vapor or sublimation pressure ([1]; 342.8 K),vapor or sublimation pressure ([1]; 342 K)
–,"Cc1ccccc1C [1,2-dimethylbenzene]",875.5 ± 1 kg/m3,10 ± 0.15 kPa,1.5031 ± 0.0007,–,–
–,"Cc1cccc(C)c1 [1,3-dimethylbenzene]",859.95 ± 1 kg/m3,–,1.4946 ± 0.0007,10 ± 0.15 kPa,–
–,"Cc1ccc(C)cc1 [1,4-dimethylbenzene]",856.71 ± 1 kg/m3,–,1.4931 ± 0.0007,–,10 ± 0.15 kPa
10 ± 0.15 kPa,CCCCCCCCCCC [undecane],736.85 ± 1 kg/m3,–,1.4152 ± 0.0007,–,–

# Source: the NIST ThermoML archive (doi:10.1016/j.fluid.2013.10.012)
